Assay results as given in the NIST ThermoML archive (doi:10.1021/je700029q).

Columns and labels:
[1] = refractive index (Na D-line) (dimensionless); xn = mol fraction of the nth substance listed; settings: 298.15 K, 101 kPa, Liquid
[2] = xn = mol fraction of the nth substance listed; settings: 101 kPa, Liquid

CCOS(=O)(=O)[O-].CCn1cc[n+](C)c1 [1-ethyl-3-methylimidazolium ethyl sulfate] + CC(C)O
[1]
Settings | refractive index
x2 = 0 | 1.4794
x2 = 0.1228 | 1.47434
x2 = 0.2066 | 1.47057
x2 = 0.309 | 1.46502
x2 = 0.399 | 1.45926
x2 = 0.4977 | 1.45177
x2 = 0.6341 | 1.43881
x2 = 0.7223 | 1.42818
x2 = 0.8551 | 1.40784
x2 = 0.9706 | 1.38306

[2]
Settings | mass density, 298.15 K [kg/m3] | mass density, 313.15 K [kg/m3] | mass density, 328.15 K [kg/m3] | speed of sound, 298.15 K [m/s] | speed of sound, 313.15 K [m/s] | speed of sound, 328.15 K [m/s] | viscosity, 298.15 K [mPa·s] | viscosity, 313.15 K [mPa·s] | viscosity, 328.15 K [mPa·s]
x2 = 0 | 1237.6 | 1227.5 | 1217.5 | 1679 | 1643 | 1605 | 97.58 | 50.01 | 29.18
x2 = 0.1228 | 1214.3 | 1204.4 | 1194.5 | 1644 | 1608 | 1569 | 69.71 | 37.79 | 22.97
x2 = 0.2066 | 1196.4 | 1186.4 | 1176.3 | 1611 | 1576 | 1537 | 53.67 | 30.34 | 18.93
x2 = 0.309 | 1170.9 | 1160.9 | 1150.7 | 1570 | 1534 | 1494 | 40.1 | 23.56 | 15.2
x2 = 0.399 | 1144.9 | 1134.7 | 1124.3 | 1529 | 1491 | 1451 | 29.79 | 18.23 | 12.1
x2 = 0.4977 | 1111.8 | 1101.3 | 1090.7 | 1475 | 1439 | 1399 | 21.14 | 13.41 | 9.184
x2 = 0.6341 | 1054.2 | 1043.5 | 1032.6 | 1399 | 1360 | 1318 | 12.4 | 8.274 | 5.878
x2 = 0.7223 | 1008.5 | 997.4 | 986.2 | 1342 | 1302 | 1259 | 8.462 | 5.753 | 4.15
x2 = 0.8551 | 920.2 | 908.6 | 896.6 | 1251 | 1207 | 1161 | 4.475 | 3.081 | 2.225
x2 = 0.9706 | 814.1 | 801.7 | 788.5 | 1164 | 1113 | 1063 | 2.499 | 1.658 | 1.147
